This is an account of results in patent US11179329B2, “Therapeutical use of H3-ligands” (BIOPROJET Pharma, priority 2017, dated 2021).

Read-outs that look alike come from different tables or passages of the source.

The nature of data set [1]: PK results in human, Compound (A) given orally once-a-day. It is filed as in vivo. As to conditions: for Cmax: po, 60 ug. On the procedure: Steady state seems to be attained after 7 to 8 days of treatment for the 60 μg dose.
Data set [2] concerns vigilance. Put plainly: Activity on vigilance in human. It counts as in vivo.
Data set [3] has as its system H3 receptor. Put plainly: H3R occupancy in brain by PET imaging with [11C]GSK189254 in healthy volunteers. It is filed as in vivo. As to conditions: human.
Experimental: The process of imaging requires the injection of a positron-emitting radiotracer that binds to the receptor followed by the measurement of this binding using the PET scanner.
This method allows to predict the therapeutic dose of a new H3 receptor inverse agonist/antagonist in two steps: 1/the degree of receptor occupancy associated with the dose ensuring therapeutic efficacy of a known drug A is determined, 2/the dose of the new drug B ensuring the same receptor occupancy as A at therapeutic dose is evaluated.
This strategy was applied by comparing H3R occupancy in healthy volunteers receiving pitolisant, an approved and marketed H3R inverse agonist, at its oral maximal therapeutic dose of 40 mg to occupancy by Compound (A) given at several dosages.
Data set [4] in a line: PK results in human, Compound (A) given orally once-a-day. It is filed as in vivo. As to conditions: for Cmax: serum, po, 90 ug.
Data set [5] in a line: Solid-state stability / hygroscopicity of the dihydrochloride forms. It is filed as physicochemical. The method, then: The tetrahydrate of compound (A) is stable for relative humidity ranging from at least 30% to 70% which is an improved property as compared to the hygroscopic nature of the previously described dihydrochloride. The tetrahydrate of compound (A) is also stable for temperatures ranging from 20° C. to 40° C.

The nature of data set [6]: Comparative pharmacokinetic data in mice (plasma and brain). As to conditions: male swiss mice; for AUC brain / AUC plasma: normalized at 1 mg of base/kg, 24 hours sampling.
Experimental: (§1) Compounds were administered to male swiss mice at a dose close to 1 mg of base/kg.
For data set [7] the following is noted: mouse, in vivo.
Experimental: as §1
For data set [8] the following is noted: in vivo; cited from earlier work.
Data set [9] concerns the target histamine H3 receptor (Homo sapiens, UniProt Q9Y5N1). The settings on record: cited from earlier work.

histamine H3 receptor, sequence (Q9Y5N1 whole entry, species assumed): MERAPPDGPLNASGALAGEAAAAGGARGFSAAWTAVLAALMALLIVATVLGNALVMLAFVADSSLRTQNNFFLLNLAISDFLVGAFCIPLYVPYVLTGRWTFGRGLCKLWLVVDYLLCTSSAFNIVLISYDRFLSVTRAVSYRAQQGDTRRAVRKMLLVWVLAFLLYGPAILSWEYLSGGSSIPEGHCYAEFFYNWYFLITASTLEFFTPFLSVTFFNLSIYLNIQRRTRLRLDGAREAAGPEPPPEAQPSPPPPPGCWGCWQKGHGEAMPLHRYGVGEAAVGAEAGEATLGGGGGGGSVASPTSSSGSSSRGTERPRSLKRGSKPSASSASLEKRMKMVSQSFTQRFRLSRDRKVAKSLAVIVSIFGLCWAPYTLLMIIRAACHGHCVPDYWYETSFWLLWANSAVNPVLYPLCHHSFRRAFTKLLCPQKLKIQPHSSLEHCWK

A word on the Cmax: it is the peak of the concentration-time curve. For `C[C@H]1CCCN(CCCOc2ccc(-c3cc[n+]([O-])cc3)cc2)C1` [Compound (A), (3S)-4-{4-[3-(3-methylpiperidin-1-yl)propoxy]phenyl}pyridine 1-oxide], in data set [1] (human volunteers, between 60 and 90 μg o.d., Day 1 and Day 10), the “dose proportionality of serum exposure (mean Cmax and AUC0-24 h dose normalized ratios)” value was “tendency to increase more than dose-proportionally”. In [1] (human, 60 μg), the “decrease of total body clearance (Clss/F) after repeated dosing” value is on record as 65%, the “higher AUC0-24 h after repeated dosing (Day 10) than after a single dose (Day 1)” value stood at 73% and the “higher Cmax after repeated dosing (Day 10) than after a single dose (Day 1)” value is recorded as 42%. The compound also returned a Cmax in [1] (human, serum, human, oral 60 μg once-a-day, after repeated dose) of 0.172 ng/mL. For the same compound, in data set [1] (human, serum, human, oral 60 μg, after a single dose), the Cmax worked out at 0.121 ng/mL. The half-life in data set [1] (serum, oral, human, determined at Day 10 after multiple administrations, read-out: mean t1/2 (converted)) was about 33 h. The activity on vigilance entry in data set [2] (30 μg daily, when going to bed at night) was “delay in falling asleep”. Further, in data set [2] (90 μg once-a-day for 10 days), the “effect of repeated treatment on sleep” value was “some insomnia”. Further, the “Percent H3R occupancy ± SD At through (24 h)” value in [3] (30 μg once) was −46.50 ± 12.71%. In addition, the “potency relative to the marketed drug pitolisant” value in data set [3] (doses of equal H3R occupancy) is 1,000 fold. Also, in data set [4] (90 μg), the “decrease of total body clearance (Clss/F) after repeated dosing” value is 74%, the “higher AUC0-24 h after repeated administration (% accumulation)” value was 113% and the “higher Cmax after repeated administration (% accumulation)” value is on record as 101%. Also, in [4] (oral 90 μg once-a-day, after repeated dose), the Cmax turned out to be 0.344 ng/mL. In addition, the Cmax in data set [4] (oral 90 μg, after a single dose) was 0.171 ng/mL.

With `C[C@H]1CCCN(CCCOc2ccc(-c3cc[n+]([O-])cc3)cc2)C1.Cl.Cl.O.O.O.O` [Example 4, (3S)-4-{4-[3-(3-methylpiperidin-1-yl)propoxy]phenyl}pyridine 1-oxide dihydrochloride tetrahydrate], the “stability (general)” value in [5] was “very stable”. In data set [5] (relative humidity ranging from at least 30% to 70%), the “stability against relative humidity” value is reported as “stable”. Also, the stability against temperature entry in data set [5] (temperatures ranging from 20° C. to 40° C.) is “stable”. Besides, in data set [6], the “ratio of plasma AUC over the AUC of the dihydrochloride tetrahydrate” value (“ratio of plasma AUC” for short) is listed as 1.0, the AUC brain is 1040 ng·h/g and the AUC plasma amounted to 619 ng·h/mL.

Turning to `C[C@H]1CCCN(CCCOc2ccc(-c3cc[n+]([O-])cc3)cc2)C1` [Example 5, (3S)-4-{4-[3-(3-methylpiperidin-1-yl)propoxy]phenyl}pyridine 1-oxide base], in data set [6], the “ratio of plasma AUC” value is given as 1.2, the AUC brain came out at 860 ng·h/g and the AUC plasma was 769 ng·h/mL.

`C[C@H]1CCCN(CCCOc2ccc(-c3cc[n+]([O-])cc3)cc2)C1.O=C(O)C(=O)O` [Example 6, (3S)-4-{4-[3-(3-methylpiperidin-1-yl)propoxy]phenyl}pyridine 1-oxide oxalate]: in [6], the “ratio of plasma AUC” value came out at 0.9, the AUC brain was determined as 923 ng·h/g and the AUC plasma is 562 ng·h/mL.

For the compound `C[C@H]1CCCN(CCCOc2ccc(-c3cc[n+]([O-])cc3)cc2)C1.O.O.O.O=C(O)C(O)C(O)C(=O)O` [Example 7, (3S)-4-{4-[3-(3-methylpiperidin-1-yl)propoxy]phenyl}pyridine 1-oxide L-tartrate trihydrate], in [6], the “ratio of plasma AUC” value is recorded as 0.7, the AUC brain came to 814 ng·h/g and the AUC plasma came out at 447 ng·h/mL.

Turning to `C[C@H]1CCCN(CCCOc2ccc(-c3cc[n+]([O-])cc3)cc2)C1.O=C(O)c1cc2ccccc2c(Cc2c(O)c(C(=O)O)cc3ccccc23)c1O` [Example 8, (3S)-4-{4-[3-(3-methylpiperidin-1-yl)propoxy]phenyl}pyridine 1-oxide pamoate], in [6], the “ratio of plasma AUC” value was 0.9, the AUC brain was determined as 952 ng·h/g and the AUC plasma turned out to be 587 ng·h/mL.

As for `C[C@H]1CCCN(CCCOc2ccc(-c3cc[n+]([O-])cc3)cc2)C1.O=C(O)/C=C/C(=O)O` [Example 9, (3S)-4-{4-[3-(3-methylpiperidin-1-yl)propoxy]phenyl}pyridine 1-oxide fumarate], in data set [6], the “ratio of plasma AUC” value turned out to be 0.7, the AUC brain stood at 882 ng·h/g and the AUC plasma was 448 ng·h/mL.

On to `C[C@H]1CCCN(CCCOc2ccc(-c3cc[n+]([O-])cc3)cc2)C1.C[C@H]1CCCN(CCCOc2ccc(-c3cc[n+]([O-])cc3)cc2)C1.Cc1ccc(S(=O)(=O)O)cc1.Cc1ccc(S(=O)(=O)O)cc1.O.O.O.O.O` [Example 10, (3S)-4-{4-[3-(3-methylpiperidin-1-yl)propoxy]phenyl}pyridine 1-oxide para-toluenesulfonate sestertihydrate (2.5)], for which, in [7], the “ratio of plasma AUC” value is on record as 1.2.

With `CCO.C[C@H]1CCCN(CCCOc2ccc(-c3cc[n+]([O-])cc3)cc2)C1.C[C@H]1CCCN(CCCOc2ccc(-c3cc[n+]([O-])cc3)cc2)C1.O.O.O=S(=O)(O)c1cccc2c(S(=O)(=O)O)cccc12.O=S(=O)(O)c1cccc2c(S(=O)(=O)O)cccc12` [Example 11, (3S)-4-{4-[3-(3-methylpiperidin-1-yl)propoxy]phenyl}pyridine 1-oxide 1,5-naphtalenedisulfonate monohydrate hemiethanolate], in data set [7], the “ratio of plasma AUC” value is reported as 0.7.

Regarding `C[C@H]1CCCN(CCCOc2ccc(-c3cc[n+]([O-])cc3)cc2)C1.O=P(O)(O)O` [Example 12, (3S)-4-{4-[3-(3-methylpiperidin-1-yl)propoxy]phenyl}pyridine 1-oxide phosphate], in [6], the “ratio of plasma AUC” value was found to be 0.6, the AUC brain was 630 ng·h/g and the AUC plasma came out at 350 ng·h/mL.

Consider `Br.C[C@H]1CCCN(CCCOc2ccc(-c3cc[n+]([O-])cc3)cc2)C1` [Example 13, (3S)-4-{4-[3-(3-methylpiperidin-1-yl)propoxy]phenyl}pyridine 1-oxide bromhydrate], for which the “ratio of plasma AUC” value in data set [7] was found to be 0.6.

For `C[C@H]1CCCN(CCCOc2ccc(-c3cc[n+]([O-])cc3)cc2)C1.O=S(=O)(O)O` [Example 15, (3S)-4-{4-[3-(3-methylpiperidin-1-yl)propoxy]phenyl}pyridine 1-oxide sulfate], in [6], the “ratio of plasma AUC” value is given as 0.8, the AUC brain came out at 639 ng·h/g and the AUC plasma amounted to 466 ng·h/mL.

As to `Br.Br.C[C@H]1CCCN(CCCOc2ccc(-c3cc[n+]([O-])cc3)cc2)C1` [Example 16, (3S)-4-{4-[3-(3-methylpiperidin-1-yl)propoxy]phenyl}pyridine 1-oxide dibromhydrate], in data set [7], the “ratio of plasma AUC” value was found to be 0.6.

`C[C@H]1CCCN(CCCOc2ccc(-c3cc[n+]([O-])cc3)cc2)C1.O.O=C(O)c1ccc2ccccc2c1O` [Example 19, (3S)-4-{4-[3-(3-methylpiperidin-1-yl)propoxy]phenyl}pyridine 1-oxide 1-hydroxy-2-naphtoate monohydrate]: in data set [7], the “ratio of plasma AUC” value is recorded as 0.6.

Take `C[C@H]1CCCN(CCCOc2ccc(-c3cc[n+]([O-])cc3)cc2)C1.O=C(O)c1cc2ccccc2cc1O` [Example 20, (3S)-4-{4-[3-(3-methylpiperidin-1-yl)propoxy]phenyl}pyridine 1-oxide 3-hydroxy-2-naphtoate]: the “ratio of plasma AUC” value in [7] is 0.6.

Turning to `[11CH3]NC(=O)c1ccc(Oc2ccc3c(c2)CCN(C2CCC2)CC3)nc1` [[^11C]GSK189254], in data set [8], the brain penetration entry is on record as “good brain penetration” and the terminal half-life is 1.6 ± 0.4 h. In addition, in data set [9], the “affinity for the histamine H3 receptor” value is “high affinity”.

Turning to “(3S)-4-{4-[3-(3-methylpiperidin-1-yl)propoxy]phenyl}pyridine 1-oxide 5-sulfosalicylate [Example 18]”, in data set [6], the “ratio of plasma AUC” value is listed as 0.6, the AUC brain was determined as 513 ng·h/g and the AUC plasma was 400 ng·h/mL.

Regarding “(3S)-4-{4-[3-(3-methylpiperidin-1-yl)propoxy]phenyl}pyridine 1-oxide orotate dihydrate [Example 17]”, in data set [6], the “ratio of plasma AUC” value turned out to be 0.6, the AUC brain was determined as 529 ng·h/g and the AUC plasma was 389 ng·h/mL.

As for “(3S)-4-{4-[3-(3-methylpiperidin-1-yl)propoxy]phenyl}pyridine 1-oxide sesquiglycolate monohydrate [Example 21]”, in [6], the “ratio of plasma AUC” value is given as 0.6, the AUC brain is 484 ng·h/g and the AUC plasma came to 348 ng·h/mL.
